Patent US10117431B2, “Compounds and methods for improving plant performance” (Los Alamos National Security, LLC, priority 2013, dated 2018)

Assays:
Assay type in all cases: in vivo
[1] = test system: Soybeans (Variety Viking); assay: Greenhouse seedling emergence, soybean; conditions: 1 mM seed treatment, 3 days after planting, controls 12 of 20
Experimental: The desired treatment concentration of ketosuccinamate was added to an aqueous solution of 0.01% Tween 80 and the pH was set to neutral with KOH. The seeds were dipped in the solution to wet them and allowed to air dry before planting, a process that required less than 15 min. Seeds were planted in vermiculite, sand, peat moss (1:1:1) in the greenhouse and the seedling emergence was tracked. The moisture in the germination/growth substrate as maintained between 15-20% of saturation. The temperature in the house ranged from 72-82° F. Bradyrhizobium japonicum (commercial innoculum) was mixed into the substrate before planting. 3 days after planting the following seedling emergence was observed. Controls 12 of 20 had emerged from the soil. Ketosuccinamate (1 mM) treated 16 of 20 had emerged.

Alfalfa (Variety Ladak) = assay: Greenhouse seedling emergence, alfalfa; conditions: 1 mM seed treatment, 3 days after planting, control 58%
Experimental: The desired treatment concentration of ketosuccinamate was added to an aqueous solution of 0.01% Tween 80 and the pH was set to neutral with KOH. The seeds were dipped in the solution to wet them and allowed to air dry before planting, a process that required less than 15 min. Seeds were planted in vermiculite, sand, peat moss (1:1:2) in the greenhouse and the seedling emergence was tracked. The temperature in the house ranged from 72-82° F. Sinorhizobium meliloti inoculum (commercial innoculum) was mixed into the substrate before planting. 3 days after planting, the following seedling emergence was observed. Control 58%; Ketosuccinamate (1 mM) treated 79%.

[2] = test system: Soybean (variety Viking) seeds; assay: Germination of treated soybean seeds on moist paper toweling; conditions: 10 mM seed treatment, 75-85° F.
Experimental: The desired treatment concentration of ketosuccinamate was added to an aqueous solution of 0.01% Tween 80 and the pH was set to neutral with KOH. The seeds were dipped in the solution to wet them and allowed to air dry before planting, a process that required less than 15 min. Soybean (variety Viking) 22 hr after treatment and initiation of germination on moist paper toweling at 75-85° F. the following germination was observed. 2 of the 20 controls had broken through the pericarp whereas 9 of the 20 ketosuccinamate (10 mM) treated seeds had broken through the pericarp. 24 hours after treatment 6 of the 20 controls had broken the pericarp and 12 of the 20 ketosuccinamate-treated seeds had broken the pericarp.

[3] = test system: Alfalfa (variety Ladak) seeds; assay: Germination of treated alfalfa seeds on moist paper toweling; conditions: 3 days after initiation of germination, 65-75° F., control untreated 80%
Experimental: The desired treatment concentration of ketosuccinamate was added to an aqueous solution of 0.01% Tween 80 and the pH was set to neutral with KOH. The seeds were dipped in the solution to wet them and allowed to air dry before planting, a process that required less than 15 min. Alfalfa (variety Ladak) 3 days after initiation of germination on moist paper toweling at 65-75° F. the following percent germination was observed. Control untreated seeds: 80%, seeds treated with 0.1 mM ketosuccinamate: 88% and seeds treated with 1 mM ketosuccinamate: 93%. At least 30 seeds were used in each set.

**Q.** `NC(=O)CC(=O)C(=O)O` [ketosuccinamate, 4-amino-2,4-dioxobutanoic acid] was tested. Which “seedling emergence, number of 20 that had emerged from the soil” value [1] did it give?
**A.** The value was 16.

**Q.** What about the seedling emergence (Alfalfa (Variety Ladak)) of the same molecule?
**A.** Its seedling emergence is 79%.

**Q.** What about the “number of the 20 treated seeds that had broken through the pericarp” value ([2]; 22 hr after treatment, controls 2 of the 20) of the same molecule?
**A.** The value was 9.

**Q.** And the “number of the 20 treated seeds that had broken the pericarp” value ([2]; 24 hours after treatment, controls 6 of the 20)?
**A.** The value was 12.

**Q.** What about the percent germination ([3]; seeds treated with 0.1 mM) of the same molecule?
**A.** Its percent germination is 88%.

**Q.** And the percent germination ([3]; seeds treated with 1 mM)?
**A.** The percent germination was 93%.
